In patent US8304419B2, “Chemical compounds” (priority 2007, dated 2012):
Structures can show the parent of a compound that is named as a salt.

tested on: HIV wild type (WTRVA); assay: HeLa cell assay, wild type virus (WTRVA); assay type: cell-based, HIV-1; parameters: scale not given here; details: Human immunodeficiency virus 1, HeLa, HeLa cell assay; read-out: IC50 against WTRVA

| SMILES | IC50 [nM] |
| --- | --- |
| Cc1nc(Cl)c(C(=O)NCc2ccc(Cl)c(Oc3cc(C#N)cc(C4CC4)c3)c2F)[nH]1 [Example 308, 4-chloro-N-({4-chloro-3-[(3-cyano-5-cyclopropylphenyl)oxy]-2-fluorophenyl}methyl)-2-methyl-1H-imidazole-5-carboxamide trifluoroacetate] | < 10 |
| N#Cc1cc(Oc2c(Cl)ccc(CNC(=O)c3[nH]cnc3Cl)c2F)cc(C(F)F)c1 [Example 309, 4-chloro-N-[(4-chloro-3-{[3-cyano-5-(difluoromethyl)phenyl]oxy}-2-fluorophenyl)methyl]-1H-imidazole-5-carboxamide] | < 10 |
| N#Cc1cc(Cl)cc(Oc2c(Cl)ccc(CNC(=O)c3[nH]c(N)nc3Cl)c2F)c1 [Example 230, 2-amino-4-chloro-N-({4-chloro-3-[(3-chloro-5-cyanophenyl)oxy]-2-fluorophenyl}methyl)-1H-imidazole-5-carboxamide trifluoroacetate] | < 10 |
| Cc1cc(C#N)cc(Oc2c(Cl)ccc(CNC(=O)c3[nH]c(C)nc3Cl)c2F)n1 [Example 271, 4-Chloro-N-({4-chloro-3-[(4-cyano-6-methyl-2-pyridinyl)oxy]-2-fluorophenyl}methyl)-2-methyl-1H-imidazole-5-carboxamide] | < 10 |
| Cc1nc(Br)c(C(=O)NCc2ccc(Br)c(Oc3cc(Cl)cc(C#N)c3)c2F)[nH]1 [Example 233, 4-bromo-N-({4-bromo-3-[(3-chloro-5-cyanophenyl)oxy]-2-fluorophenyl}methyl)-2-methyl-1H-imidazole-5-carboxamide] | < 10 |
| C=CCc1cc(C#N)cc(Oc2c(Cl)ccc(CNC(=O)c3[nH]cnc3Cl)c2F)c1 [Example 156, 4-chloro-N-[(4-chloro-3-{[3-cyano-5-(2-propen-1-yl)phenyl]oxy}-2-fluorophenyl)methyl]-1′-1H-imidazole-5-carboxamide] | < 10 |
| CCNc1nc(Cl)c(C(=O)NCc2ccc(Cl)c(Oc3cc(Cl)cc(C#N)c3)c2F)[nH]1 [Example 362, 4-chloro-N-({4-chloro-3-[(3-chloro-5-cyanophenyl)oxy]-2-fluorophenyl}methyl)-2-(ethylamino)-1H-imidazole-5-carboxamide trifluoroacetate] | < 10 |
| N#Cc1cc(Oc2c(Cl)ccc(CNC(=O)c3[nH]cnc3Br)c2F)cc(C(F)F)c1 [Example 375, 4-bromo-N-[(4-chloro-3-{[3-cyano-5-(difluoromethyl)phenyl]oxy}-2-fluorophenyl)methyl]-1H-imidazole-5-carboxamide] | < 10 |
| N#Cc1cc(Cl)cc(Oc2c(Cl)ccc(CNC(=O)c3[nH]cnc3Cl)c2F)c1Cl [Example 144, 4-chloro-N-({4-chloro-3-[(2,5-dichloro-3-cyanophenyl)oxy]-2-fluorophenyl}methyl)-1H-imidazole-5-carboxamide] | < 10 |
| N#Cc1cc(Cl)cc(Oc2c(C(F)F)ccc(CNC(=O)c3[nH]c(N)nc3Cl)c2F)c1 [Example 253, 2-amino-4-chloro-N-{[3-[(3-chloro-5-cyanophenyl)oxy]-4-(difluoromethyl)-2-fluorophenyl]methyl}-1H-imidazole-5-carboxamide] | < 10 |
| N#Cc1cc(Oc2c(Cl)ccc(CNC(=O)c3[nH]cnc3Br)c2F)cc(C(F)(F)F)c1 [Example 286, 4-bromo-N-[(4-chloro-3-{[3-cyano-5-(trifluoromethyl)phenyl]oxy}-2-fluorophenyl)methyl]-1H-imidazole-5-carboxamide] | < 10 |
| CCc1cc(Cl)cc(Oc2c(Cl)ccc(CNC(=O)c3[nH]cnc3Cl)c2F)c1 [Example 290, 4-chloro-N-({4-chloro-3-[(3-chloro-5-ethylphenyl)oxy]-2-fluorophenyl}methyl)-1H-imidazole-5-carboxamide] | < 10 |
| N#Cc1cc(Br)cc(Oc2c(Cl)ccc(CNC(=O)c3[nH]cnc3Cl)c2F)c1 [Example 150, N-({3-[(3-bromo-5-cyanophenyl)oxy]-4-chloro-2-fluorophenyl}methyl)-4-chloro-1H-imidazole-5-carboxamide] | < 10 |

same assay, conditions: Human immunodeficiency virus 1, HeLa, HeLa-CD4-LTR-β-gal cells, wild type virus; read-out: WTRVA activity level

| SMILES | IC50 [nM] |
| --- | --- |
| CSc1ncc(Cl)c(C(=O)NCc2ccc(Cl)c(Oc3cc(Cl)cc(C#N)c3)c2F)n1 [Example 101, 5-chloro-N-({4-chloro-3-[(3-chloro-5-cyanophenyl)oxy]-2-fluorophenyl}methyl)-2-(methylthio)-4-pyrimidinecarboxamide] | 10 to 1000 |
| CC(C)(C)OC(=O)N1CCO[C@@H](COc2ccc3[nH]c(C(=O)NCc4ccc(Cl)c(Oc5cc(Cl)cc(C#N)c5)c4F)cc3c2)C1 [Example 23, 1,1-dimethylethyl (2R)-2-{[(2-{[({4-chloro-3-[(3-chloro-5-cyanophenyl)oxy]-2-fluorophenyl}methyl)amino]carbonyl}-1H-indol-5-yl)oxy]methyl}-4-morpholinecarboxylate] | 10 to 1000 |
| N#Cc1cc(Cl)cc(Oc2c(Cl)ccc(CNC(=O)c3csc(-c4cccnc4)n3)c2F)c1 [Example 98, N-({4-chloro-3-[(3-chloro-5-cyanophenyl)oxy]-2-fluorophenyl}methyl)-2-(3-pyridinyl)-1,3-thiazole-4-carboxamide trifluoroacetate] | < 10 |
| N#Cc1cc(Cl)cc(Oc2c(Cl)ccc(CNC(=O)c3cc4cc(NC(=O)[C@@H]5CCCN5)ccc4[nH]3)c2F)c1 [Example 118, N-({4-chloro-3-[(3-chloro-5-cyanophenyl)oxy]-2-fluorophenyl}methyl)-5-(L-prolylamino)-1H-indole-2-carboxamide trifluoroacetate] | < 10 |
| N#Cc1cc(Cl)cc(Oc2c(Cl)ccc(CNC(=O)c3cc4cc(N)ccc4[nH]3)c2F)c1 [Example 111, 5-amino-N-({4-chloro-3-[(3-chloro-5-cyanophenyl)oxy]-2-fluorophenyl}methyl)-1H-indole-2-carboxamide trifluoroacetate] | < 10 |
| CN(C)CCCOc1ccc2[nH]c(C(=O)NCc3ccc(Cl)c(Oc4cc(Cl)cc(C#N)c4)c3F)cc2c1 [Example 102, N-({4-chloro-3-[(3-chloro-5-cyanophenyl)oxy]-2-fluorophenyl}methyl)-5-{[3-(dimethylamino)propyl]oxy}-1H-indole-2-carboxamide] | < 10 |
| N#Cc1cc(Cl)cc(Oc2c(Cl)ccc(CNC(=O)c3cc4ccc(OCCO)cc4[nH]3)c2F)c1 [Example 142, N-({4-chloro-3-[(3-chloro-5-cyanophenyl)oxy]-2-fluorophenyl}methyl)-6-[(2-hydroxyethyl)oxy]-1H-indole-2-carboxamide] | < 10 |
| N#Cc1cc(Cl)cc(Oc2c(Cl)ccc(CNC(=O)c3cc4ccc(Cl)cc4[nH]3)c2F)c1 [Example 110, 6-chloro-N-({4-chloro-3-[(3-chloro-5-cyanophenyl)oxy]-2-fluorophenyl}methyl)-1H-indole-2-carboxamide] | 10 to 1000 |
| N#Cc1cc(Cl)cc(Oc2c(Cl)ccc(CNC(=O)c3cc4cc(NC(=O)c5cccnc5)ccc4[nH]3)c2F)c1 [Example 115, N-({4-chloro-3-[(3-chloro-5-cyanophenyl)oxy]-2-fluorophenyl}methyl)-5-[(3-pyridinylcarbonyl)amino]-1H-indole-2-carboxamide] | < 10 |
| CN(C)c1ccc2[nH]c(C(=O)NCc3ccc(Cl)c(Oc4cc(Cl)cc(C#N)c4)c3F)cc2c1 [Example 126, N-({4-chloro-3-[(3-chloro-5-cyanophenyl)oxy]-2-fluorophenyl}methyl)-5-(dimethylamino)-1H-indole-2-carboxamide] | < 10 |
| N#Cc1cc(Cl)cc(Oc2c(Cl)ccc(CNC(=O)c3cc([N+](=O)[O-])c[nH]3)c2F)c1 [Example 70, N-({4-chloro-3-[(3-chloro-5-cyanophenyl)oxy]-2-fluorophenyl}methyl)-4-nitro-1H-pyrrole-2-carboxamide trifluoroacetate] | < 10 |
| COc1cc2cc(C(=O)NCc3ccc(Cl)c(Oc4cc(Cl)cc(C#N)c4)c3F)[nH]c2cn1 [Example 46, N-({4-chloro-3-[(3-chloro-5-cyanophenyl)oxy]-2-fluorophenyl}methyl)-5-(methyloxy)-1H-pyrrolo[2,3-c]pyridine-2-carboxamide trifluoroacetate] | < 10 |
| N#Cc1cc(Cl)cc(Oc2c(Cl)ccc(CNC(=O)c3cc4cc(OC[C@H]5CNCCO5)ccc4[nH]3)c2F)c1 [Example 24, N-({4-Chloro-3-[(3-chloro-5-cyanophenyl)oxy]-2-fluorophenyl}methyl)-5-{[(2R)-2-morpholinylmethyl]oxy}-indole-2-carboxamide] | < 10 |
| CN(Cc1ccc(Cl)c(Oc2cc(Cl)cc(C#N)c2)c1F)C(=O)c1ccc[nH]1 [Example 129, N-({4-chloro-3-[(3-chloro-5-cyanophenyl)oxy]-2-fluorophenyl}methyl)-N-methyl-1H-pyrrole-2-carboxamide] | < 10 |
| N#Cc1cc(Cl)cc(Oc2c(Cl)ccc(CNC(=O)c3ccno3)c2F)c1 [Example 93, N-({4-chloro-3-[(3-chloro-5-cyanophenyl)oxy]-2-fluorophenyl}methyl)-5-isoxazolecarboxamide] | 10 to 1000 |
| COc1ccc(C(=O)NCc2ccc(Cl)c(Oc3cc(Cl)cc(C#N)c3)c2)c(C)c1 [Example 2, N-({4-chloro-3-[(3-chloro-5-cyanophenyl)oxy]phenyl}methyl)-2-methyl-4-(methyloxy)benzamide] | > 1000 |
| CC(C)(C)OC(=O)Nc1cccc2cc(C(=O)NCc3ccc(Cl)c(Oc4cc(Cl)cc(C#N)c4)c3F)[nH]c12 [Example 112, 1,1-dimethylethyl (2-{[({4-chloro-3-[(3-chloro-5-cyanophenyl)oxy]-2-fluorophenyl}methyl)amino]carbonyl}-1H-indol-7-yl)carbamate] | 10 to 1000 |
| CCCc1nc(Cl)c(C(=O)NCc2ccc(Cl)c(Oc3cc(Cl)cc(C#N)c3)c2F)[nH]1 [Example 139, 4-chloro-N-({4-chloro-3-[(3-chloro-5-cyanophenyl)oxy]-2-fluorophenyl}methyl)-2-propyl-1H-imidazole-5-carboxamide] | < 10 |
| CSc1ncc(C(=O)NCc2ccc(Cl)c(Oc3cc(Cl)cc(C#N)c3)c2F)[nH]1 [Example 66, N-({4-chloro-3-[(3-chloro-5-cyanophenyl)oxy]-2-fluorophenyl}methyl)-2-(methylthio)-1H-imidazole-4-carboxamide trifluoroacetate] | 10 to 1000 |
